Measurements as given in patent publication US8987195B2 (priority 2012, dated 2015).

What follows are compounds tested against HCV NS3/4A protease genotype 1b (Hepatitis C virus genotype 1b, UniProt P26663) (assay: HCV NS3/4A protease time-resolved fluorescence (TRF) assay, Ki against genotype 1b). Conditions: IC50 [gt-1b] (nM), NS3/4A genotype 1b, enzyme 0.2 nM.
Type: biochemical
Description: Measuring NS3/4A Inhibitory Activity (Ki) Against Genotype 1b, Against A156T Mutants and Against Genotype 3a
One assay for measuring inhibitory activity is HCV NS3 protease time-resolved fluorescence (TRF) assay as described below and in Mao et al., Anal. Biochem. 373:1-8, 2008 and International Patent Application Publication WO 2006/102087. A NS3 protease assay can be performed, for example, in a final volume of 20 μl assay buffer containing 50 mM HEPES, pH 7.5, 150 mM NaCl, 15% glycerol, 0.15% TRITON X-100, 10 mM DTT, and 0.1% PEG 8000. NS3 and NS4A protease is pre-incubated with various concentrations of inhibitors in DMSO for 30 min. The reaction is initiated by adding the TRF peptide substrate (final concentration 25 nM). NS3 mediated hydrolysis of the substrate was run for 2.5 hours at room temperature. Product fluorescence is detected using A Pherastar Plus plate reader (BMG) or Envision (Perkin Elmer Life and Analytical Sciences with excitation at 340 nm and emission at 615 nm using the appropriate delay time optimized for the europium fluorescence probe. Testing concentrations of different enzyme forms are selected to result in a signal to background ratio (S/B) of 10-30. IC50 values are derived using a standard four-parameter fit to the data. Ki values are derived from IC50 values using the following formula, IC50=Ki(1+[S]/KM), Eqn (1), where [S] is the concentration of substrate peptide in the reaction and KM is the Michaelis constant. See P. Gallinari et al., 38 BIOCHEM. 5620-32 (1999); P. Gallinari et al., 72 J. VIROL. 6758-69 (1998); M. Taliani et al., 240 ANAL. BIOCHEM. 60-67 (1996); Mao et al., Analytical Biochemistry 373: 1-8, 2008.
The assay described above was run against genotype 1b at a concentration of 0.2 nM, against A156T mutant strains at a concentration of 0.4 nM, and against genotype 3a at a concentration of 0.025 nM.
In the case of `COc1ccc2nc(C(C)C)c3c(c2c1)[C@H](F)C[C@]1(C[C@H]2C(=O)N[C@]4(C(=O)NS(=O)(=O)C5(C)CC5)C[C@H]4/C=C\CCCCC[C@H](NC(=O)OC(C)(C)C)C(=O)N2C1)O3` [Example 32, tert-butyl ((1′R,2S,6S,13aS,14aR,16aS,Z)-1′-fluoro-5′-isopropyl-9′-methoxy-14a-(((1-methylcyclopropyl)sulfonyl)carbamoyl)-5,16-dioxo-1′,2′,3,5,6,7,8,9,10,11,13a,14, 14a,15,16,16a-hexadecahydro-1H-spiro[cyclopropa[e]pyrrolo[1,2-a][1,4]diazacyclopentadecine-2,3′-pyrano[2,3-c]quinolin]-6-yl)carbamate], the IC50 is reported as 0.024 nM.
`Cc1nc2ccc(OC(F)(F)F)cc2c2c1O[C@@]1(C[C@H]3C(=O)N[C@]4(C(=O)NS(=O)(=O)C5(C)CC5)C[C@H]4/C=C\CCCCC[C@H](NC(=O)OC(C)(C)C)C(=O)N3C1)CC2(F)F` [Example 220, tert-butyl [(2S,6S,12Z,13aS,14aR,16aS)-1′,1′-difluoro-5′-methyl-14a-{[(1-methylcyclopropyl)sulfonyl]carbamoyl}-5,16-dioxo-9′-(trifluoromethoxy)-1,1′,2′,5,6,7,8,9,10,11,13a,14,14a,15,16,16a-hexadecahydrospiro[cyclopropa[e]pyrrolo[1,2-a][1,4]diazacyclopentadecine-2,3′-pyrano[2,3-c]quinolin]-6-yl]carbamate] gave an IC50 of 0.033 nM.
Compound `CC(C)(C)OC(=O)N[C@H]1CCCCC/C=C\[C@@H]2C[C@@]2(C(=O)NS(=O)(=O)C2(C)CC2)NC(=O)[C@@H]2C[C@]3(CCc4c(c(C(F)(F)F)nc5ccc(OCCN6CCCCC6)cc45)O3)CN2C1=O` [Example 67, tert-Butyl ((2R,6S,13aS,14aR,16aS,Z)-14a-(((1-methylcyclopropyl)sulfonyl)carbamoyl)-5,16-dioxo-9′(2-(piperidin-1-yl)ethoxy)-5′-(trifluoromethyl)-1′,2′,3,5,6,7,8,9,10,11,13a,14,14a,15,16,16a-hexadecahydro-1H-spiro[cyclopropa[e]pyrrolo[1,2-a][1,4]diazacyclopentadecine-2,3′-pyrano[2,3-c]quinolin]-6-yl)carbamate] has an IC50 of 0.021 nM.

Same assay, conditions: IC50 [gt-1b] (nM), NS3/4A genotype 1b, enzyme 0.2 nM; K+ salt
`COc1ccc2nc(C)c3c(c2c1)CC[C@]1(C[C@H]2C(=O)N[C@]4(C(=O)NS(=O)(=O)C5(C)CC5)C[C@H]4/C=C\CCCCC[C@H](NC(=O)OC4(C5CC5)CC4)C(=O)N2C1)O3` [Example 212, 1,1′-bi(cyclopropyl)-1-yl [(2R,6S,12Z,13aS,14aR,16aS)-9′-methoxy-5′-methyl-14a-{[(1-methylcyclopropyl)sulfonyl]carbamoyl}-5,16-dioxo-1,1′,2′,5,6,7,8,9,10,11,13a,14,14a,15,16,16a-hexadecahydrospiro[cyclopropa[e]pyrrolo[1,2-a][1,4]diazcyclopentadecine-2,3′-pyrano[2,3-c]quinolin]-6-yl]carbamate] showed an IC50 of 0.003 nM.
Work on `COc1ccc2nc(C)c3c(c2c1)CC[C@]1(C[C@H]2C(=O)N[C@]4(C(=O)NS(=O)(=O)C5(C)CC5)C[C@H]4/C=C\CCCCC[C@H](NC(=O)O[C@@H](C)C(C)C)C(=O)N2C1)O3` [Example 215, (2S)-3-methylbutan-2-yl [(2R,6S,12Z,13aS,14aR,16aS)-9′-methoxy-5′-methyl-14a-{[(1-methylcyclopropyl)sulfonyl]carbamoyl}-5,16-dioxo-1,1′,2′,5,6,7,8,9,10,11,13a,14,14a,15,16,16a-hexadecahydrospiro[cyclopropa[e]pyrrolo[1,2-a][1,4]diazacyclopentadecine-2,3′-pyrano[2,3-c]quinolin]-6-yl]carbamate] yielded an IC50 of 0.005 nM.
Work on `COc1ccc2nc(C)c3c(c2c1)CC[C@]1(C[C@H]2C(=O)N[C@]4(C(=O)NS(=O)(=O)C5(C)CC5)C[C@H]4/C=C\CCCCC[C@H](NC(=O)OC(C)(C)C)C(=O)N2C1)O3` [Example 9, tert-Butyl [(2R,6S,12Z,13aS,14aR,16aS)-9′-methoxy-5′-methyl-14a-{[(1-methylcyclopropyl)sulfonyl]carbamoyl}-5,16-dioxo-1,1′,2′,5,6,7,8,9,10,11,13a,14,14a,15, 16,16a-hexadecahydrospiro[cyclopropa[e]pyrrolo[1,2-a][1,4]diazacyclopentadecine-2,3′-pyrano[2,3-c]quinolin]-6-yl]carbamate] yielded an IC50 of 0.006 nM.
`COc1ccc2nc(C)c3c(c2c1)CC[C@]1(C[C@H]2C(=O)N[C@]4(C(=O)NS(=O)(=O)C5(C)CC5)C[C@H]4/C=C\CCCCC[C@H](NC(=O)O[C@H](C)C(C)C)C(=O)N2C1)O3` [Example 214, (2R)-3-methylbutan-2-yl [(2R,6S,12Z,13aS,14aR,16aS)-9′-methoxy-5′-methyl-14a-{[(1-methylcyclopropyl)sulfonyl]carbamoyl}-5,16-dioxo-1,1′,2′,5,6,7,8,9,10,11,13a,14,14a,15,16,16a-hexadecahydrospiro[cyclopropa[e]pyrrolo[1,2-a][1,4]diazacyclopentadecine-2,3′-pyrano[2,3-c]quinolin]-6-yl]carbamate] was tested, and the IC50 was 0.005 nM.

Same assay, conditions: IC50 [gt-1b], NS3/4A protease TRF assay, genotype 1b enzyme 0.2 nM
`Cc1ccc2nc(C(F)(F)F)c3c(c2c1)CC[C@]1(C[C@H]2C(=O)N[C@]4(C(=O)NS(=O)(=O)C5(C)CC5)C[C@H]4/C=C\CCCCC[C@H](NC(=O)O[C@H](C)C(C)C)C(=O)N2C1)O3` [Example 395, (2R)-3-methylbutan-2-yl [(2R,6S,12Z,13aS,14aR,16aS)-9′-methyl-14a-{[(1-methylcyclopropyl)sulfonyl]carbamoyl}-5,16-dioxo-5′-(trifluoromethyl)-1,1′,2′,5,6,7,8,9,10,11,13a,14,14a,15,16,16a-hexadecahydrospiro[cyclopropa[e]pyrrolo[1,2-a][1,4]diazacyclopentadecine-2,3′-pyrano[2,3-c]quinolin]-6-yl]carbamate] showed an IC50 of 0.014 nM.
`[2H]C([2H])(F)Oc1ccc2nc(C)c3c(c2c1)[C@H](F)C[C@]1(C[C@H]2C(=O)N[C@]4(C(=O)NS(=O)(=O)C5(C)CC5)C[C@H]4/C=C\CCCCC[C@H](NC(=O)OC(C)(C)C)C(=O)N2C1)O3` [Example 397, tert-butyl [(1′R,2S,6S,12Z,13aS,14aR,16aS)-1′-fluoro-9′-{[fluoro(^2H2)methyl]oxy}-5′-methyl-14a-{[(1-methylcyclopropyl)sulfonyl]carbamoyl}-5,16-dioxo-1,1′,2′,5,6,7,8,9,10,11,13a,14,14a,15,16,16a-hexadecahydrospiro[cyclopropa[e]pyrrolo[1,2-a][1,4]diazacyclopentadecine-2,3′-pyrano[2,3-c]quinolin]-6-yl]carbamate] showed an IC50 of 0.006 nM.
Compound `Cc1ccc2nc(C(F)(F)F)c3c(c2c1)CC[C@]1(C[C@H]2C(=O)N[C@]4(C(=O)NS(=O)(=O)C5(C)CC5)C[C@H]4/C=C\CCCCC[C@H](NC(=O)OC(C)(C)C(F)(F)F)C(=O)N2C1)O3` [Example 393, 1,1,1-trifluoro-2-methylpropan-2-yl [(2R,6S,12Z,13aS,14aR,16aS)-9′-methyl-14a-{[(1-methylcyclopropyl)sulfonyl]carbamoyl}-5,16-dioxo-5′-(trifluoromethyl)-1,1′,2′,5,6,7,8,9,10,11,13a,14,14a,15,16,16a-hexadecahydrospiro[cyclopropa[e]pyrrolo[1,2-a][1,4]diazacyclopentadecine-2,3′-pyrano[2,3-c]quinolin]-6-yl]carbamate] has an IC50 of 0.026 nM.
For `COc1cc(Cl)c2nc(C(F)(F)F)c3c(c2c1)CC[C@]1(C[C@H]2C(=O)N[C@]4(C(=O)NS(=O)(=O)C5(C)CC5)C[C@H]4/C=C\CCCCC[C@H](NC(=O)OCC(C)(C)C)C(=O)N2C1)O3` [Example 401, 2,2-dimethylpropyl [(2R,6S,12Z,13aS,14aR,16aS)-7′-chloro-9′-methoxy-14a-{[(1-methylcyclopropyl)sulfonyl]carbamoyl}-5,16-dioxo-5′-(trifluoromethyl)-1,1′,2′,5,6,7,8,9,10,11,13a,14,14a,15,16,16a-hexadecahydrospiro[cyclopropa[e]pyrrolo[1,2-a][1,4]diazacyclopentadecine-2,3′-pyrano[2,3-c]quinolin]-6-yl]carbamate], the IC50 was 0.057 nM.
`Cc1ccc2nc(C(F)(F)F)c3c(c2c1)CC[C@]1(C[C@H]2C(=O)N[C@]4(C(=O)NS(=O)(=O)C5(C)CC5)C[C@H]4/C=C\CCCCC[C@H](NC(=O)OCC(C)(C)C)C(=O)N2C1)O3` [Example 391, 2,2-dimethylpropyl [(2R,6S,12Z,13aS,14aR,16aS)-9′-methyl-14a-{[(1-methylcyclopropyl)sulfonyl]carbamoyl}-5,16-dioxo-5′-(trifluoromethyl)-1,1′,2′,5,6,7,8,9,10,11,13a,14,14a,15,16,16a-hexadecahydrospiro[cyclopropa[e]pyrrolo[1,2-a][1,4]diazacyclopentadecine-2,3′-pyrano[2,3-c]quinolin]-6-yl]carbamate] showed an IC50 of 0.026 nM.
